In data set [1] the target is T1, aldose reductase (Rattus norvegicus, UniProt P07943).
T1 construct: partially purified enzyme from rat lens; from tissue; host or cells: rat lens
Kind of data set: Inhibitory activity on aldose reductase in vitro. In kind it is biochemical. To be noted: partially purified enzyme from rat lens. The text has this:
(§1) Aldose reductase preparation used in this test was partially purified enzyme from rat lens.

The target in data set [2] is T1, aldose reductase. Kind of data set: Inhibitory activity on aldose reductase in vivo (serum of orally dosed rats added to the aldose reductase assay). As to conditions: oral, 0.5 ml added to assay. As for the experimental part:
as §1
In order to estimate whether the compounds are available for inhibiting the enzyme in vivo, following preliminary test was carried out.
2 and 5 hours later, blood samples were taken from the rats. A 0.5 ml of serum, instead of the compound, was added to the assay system described in Experiment 1.

Data set [3] concerns pentylenetetrazole convulsion. The experiment in a line: Anti-convulsion test (pentylenetetrazole convulsion). In kind it is in vivo. To be noted: ICR mice; Example 2 orally at 50, 200, 500 and 800 mg/kg; pentylenetetrazole 100 mg/kg i.p. 2 hours later. How it is done:
Mice (ICR stain) were administered orally with the compound of Example 2 at various doses of 50, 200, 500 and 800 mg/kg and injected with pentylenetetrazole at a dose of 100 mg/kg intraperitoneally 2 hours later.

A short description of data set [4]: Acute toxicity on mice, oral. As to conditions: mouse, in vivo. As for the experimental part: Acute toxicity was tested by oral administration with the compounds of this invention in fasted mice (ICR stain).
[5] abbreviates: serum taken 2 hr after administration, read-out: Inhibition % on aldose reductase in vivo, 2 hr after administration.
Setting [6] is: serum taken 5 hr after administration, read-out: Inhibition % on aldose reductase in vivo, 5 hr after administration.

Structures are written as SMILES. Read-outs that look alike come from different tables or passages of the source. Bounds are passed on as bounds.

`O=C1CC2(C(=O)N1)C(=O)N1CCCc3cccc2c31` (stereo not shown) [Example 1, 5',6'-Dihydrospiro[pyrrolidine-3,1'-[4H]pyrrolo[3,2,1-ij]quinoline]-2,2',5(1'H)-trione] registered a concentration for half-maximal inhibition (IC50) at aldose reductase [1] of 6000 nM. The inhibition at 25 mg/kg on aldose reductase [2] (setting [5]) was determined as 61.2%; on aldose reductase [2] (setting [6]) it was 49.8%.

Regarding `O=C1NC(=O)C(c2ccccc2)(c2ccccc2)N1` [phenytoin], the “anti-convulsion activity (suppressive effect on pentylenetetrazole convulsion)” value (from here on “anti-convulsion activity”) in data set [3] was “dose-dependent protection against the tonic convulsion”.

At aldose reductase [1], `Cc1cc2c3c(c1)C1(CC(=O)NC1=O)C(=O)N3CCC2` (stereo not shown) [Example 7, 5',6'-Dihydro-8'-methylspiro[pyrrolidine-3,1'-[4H]pyrrolo[3,2,1-ij]quinoline]-2,2',5(1'H)-trione] registered an IC50 of 2000 nM. The inhibition at 25 mg/kg at aldose reductase [2] (setting [5]) amounted to 48.4%; on aldose reductase [2] (setting [6]) it was 33.8%.

In the case of `O=C1CC2(C(=O)N1)C(=O)N1CCOc3cc(Cl)cc2c31` (stereo not shown) [Example 8, 8'-Chloro-2',3'-dihydrospiro[pyrrolidine-3,6'-pyrrolo[1,2,3-de][1,4]benzoxazine]-2,5,5'(6'H9-trione], in data set [4] (po), the LD50 is over 2000 mg/kg. The molecule also gave an IC50 against aldose reductase [1] of 600 nM. Also, the figures for the inhibition at 25 mg/kg at aldose reductase [2] (setting [5]) and on aldose reductase [2] (setting [6]) were 62.5% and 61.4%, respectively.

In turn, `O=C1CC2(C(=O)N1)C(=O)N1CCSc3cccc2c31` (stereo not shown) [Example 11] returned an IC50 on aldose reductase [1] of 2000 nM. Moreover, the inhibition at 25 mg/kg is 72.3% at aldose reductase [2] (setting [5]) and 71.3% on aldose reductase [2] (setting [6]).

As to `O=C1CC2(C(=O)N1)C(=O)N1CCOc3c(Cl)c(Cl)cc2c31` (stereo not shown) [Example 13], the LD50 in data set [4] (po) was over 2000 mg/kg. For the same molecule, the IC50 at aldose reductase [1] stood at 200 nM. In addition, the figures for the inhibition at 25 mg/kg at aldose reductase [2] (setting [5]) and at aldose reductase [2] (setting [6]) were 78.2% and 81.2%, respectively.

In turn, `COc1cc2c3c(c1)C1(CC(=O)NC1=O)C(=O)N3CCO2` (stereo not shown) [Example 17] had an IC50 at aldose reductase [1] of 35000 nM.

`O=C1CC2(C(=O)N1)C(=O)N1CCCc3cc(Cl)cc2c31` (stereo not shown) [Example 2, 8'-Chloro-5',6'-dihydrospiro[pyrrolidine-3,1'-[4H]pyrrolo[3,2,1-ij]quinoline]-2,2',5(1'H)-trione]: on aldose reductase [1], 400 nM corresponded to half-maximal inhibition (IC50). Further, the “anti-convulsion activity” value in data set [3] was “did not show any suppressive effect”. For the same molecule, the values for the inhibition at 25 mg/kg on aldose reductase [2] (setting [5]) and on aldose reductase [2] (setting [6]) were 71.7% and 68.5%, respectively.

On to `O=C1CC2(C(=O)N1)C(=O)N1CCOc3c(F)c(F)cc2c31` (stereo not shown) [Example 15], for which half-maximal inhibition at aldose reductase [1] (IC50) was put at 700 nM. Also, the inhibition at 25 mg/kg on aldose reductase [2] (setting [5]) worked out at 74.9%; at aldose reductase [2] (setting [6]), 75.2%.

Regarding `O=C1CC2(C(=O)N1)C(=O)N1CCOc3c(Cl)ccc2c31` (stereo not shown) [Example 12], the LD50 in data set [4] (po) is over 2000 mg/kg. The molecule also registered an IC50 on aldose reductase [1] of 1500 nM. The inhibition at 25 mg/kg at aldose reductase [2] (setting [5]) was 72.3%; on aldose reductase [2] (setting [6]), 73.9%.

As for `O=C1CC2(C(=O)N1)C(=O)N1CCOc3cc(F)cc2c31` (stereo not shown) [Example 14], the LD50 in data set [4] (po) is over 1000 mg/kg. This molecule came in with an IC50 against aldose reductase [1] of 700 nM. The inhibition at 25 mg/kg on aldose reductase [2] (setting [5]) came out at 75.1%; on aldose reductase [2] (setting [6]), 75.8%.

For `CC1CCc2cccc3c2N1C(=O)C31CC(=O)NC1=O` (stereo not shown) [Example 3], the IC50 at aldose reductase [1] was 9000 nM. In addition, the inhibition at 25 mg/kg worked out at 53.3% at aldose reductase [2] (setting [5]) and 42.6% on aldose reductase [2] (setting [6]).

In turn, `O=C1CC2(C(=O)N1)C(=O)N1c3ccccc3Sc3cccc2c31` (stereo not shown) [Example 6, Spiro[pyrrolidine-3,2'-pyrrolo[3,2,1-kl]phenothiazine]-1',2,5(2'H)-trione] came in with an LD50 in data set [4] (oral, fasted ICR mice) of over 2000 mg/kg. Besides, at aldose reductase [1], 350 nM corresponded to half-maximal inhibition (IC50). Further, the results for the inhibition at 25 mg/kg at aldose reductase [2] (setting [5]) and at aldose reductase [2] (setting [6]) were 11.8% and 13.4%, respectively.

For `CC1CCc2cc(Cl)cc3c2N1C(=O)C31CC(=O)NC1=O` (stereo not shown) [Example 4], on aldose reductase [1], the IC50 is 350 nM. Further, the inhibition at 25 mg/kg at aldose reductase [2] (setting [5]) was found to be 71.5%; on aldose reductase [2] (setting [6]) it was 70.2%.

Take `Cc1cc2c3c(c1)C1(CC(=O)NC1=O)C(=O)N3CCO2` (stereo not shown) [Example 16]: the median lethal dose (LD50) in data set [4] (po) is over 2000 mg/kg. Besides, inhibition against aldose reductase [1] was half-maximal at 2500 nM (IC50).

On to `O=C1CC2(C(=O)N1)C(=O)N1CCOc3cccc2c31` (stereo not shown) [Example 5], for which, at aldose reductase [1], the IC50 worked out at 5000 nM. Besides, the inhibition at 25 mg/kg at aldose reductase [2] (setting [5]) was determined as 52.3%; at aldose reductase [2] (setting [6]), 47.6%.

With `O=C1NC(=O)[C@@]2(CCOc3ccc(F)cc32)N1` [Sorbinil, (4S)2,3-dihydro-6-fluorospiro[4H--1benzopyran-4,4 imidazolidine2',5dione, reference compound], the “anti-convulsion activity” value in data set [3] is “dose-dependent protection against the tonic convulsion”. Also, the inhibition at 25 mg/kg worked out at 79.8% on aldose reductase [2] (setting [5]) and 79.5% on aldose reductase [2] (setting [6]).

By IC50 is commonly meant the midpoint of a concentration-inhibition curve. Read a high IC50 as lower potency. Broadly, the LD50 is the dose at which mortality reaches 50%. Read a high LD50 as lower toxicity.

For the origin of these results see patent US4593092A, “Class of spiro-linked pyrrolidine-2,5-diones” (Kyorin Pharmaceutical Co., Ltd., priority 1983, dated 1986).
